According to patent publication US12692249B2, “WDR5 inhibitors and modulators” (Vanderbilt University, priority 2019, dated 2026):
Like-named read-outs stand apart in the source and are kept apart here.

Legend:
[1] = tested on: MV4:11 human cancer cell lines; assay: Cellular viability / anti-proliferative assay, CellTiter-Glo, 5 day protocol; type: cell-based; settings: read-out: GI50 on cellular proliferation of MV4:11 human cancer cell lines
Summary of the method: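 Luminescent ATP-based viability (CellTiter-Glo) after a 5-day exposure gave GI50 via sigmoidal fitting, averaged over two or more replicates. Compounds spanned 22 two-fold steps down from 30 μM at 0.3% DMSO, on 200 MV-4-11 cells per well grown in IMDM plus 10% FBS.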

WDR5 = WDR5 (Homo sapiens, UniProt P61964); assay: TR-FRET competition binding assay, displacement of 10mer-Thr-FAM MLL peptide probe from His-tagged WDR5; settings: WDR5-His tag (residues 24-334) 2 nM; 10mer-Thr-FAM 150 nM; 60 min, room temperature; read-out: Ki for Inhibition of WDR5 by TR-FRET assay
[2] = Homo sapiens, MV4-11, 120 h, MV4:11 cells, 5 day incubation, CellTiter-Glo, mean of at least two replicates

| Compound | Ki (WDR5) | GI50 [1, 2] | GI50 ([1]; MV4:11 cells, 5 day incubation, CellTiter-Glo, mean of at least two replicates) | GI50 ([1]; Homo sapiens, MV4-11, 120 h) |
| --- | --- | --- | --- | --- |
| COc1cc(CN2CCCCC2)c2nccc(N3CCc4c(cc(Cn5ccnc5)cc4-c4cn(C)nc4C(F)(F)F)C3=O)c2c1 [Example 128] | 38 pM |  |  | < 20000 pM |
| CCc1cnc2cc(C)cc(N3CCc4c(cc(Cn5ccnc5)cc4-c4cn(C)nc4C(F)(F)F)C3=O)c2c1 [Example 129, 7-((1H-Imidazol-1-yl)methyl)-2-(3-ethyl-7-methylquinolin-5-yl)-5-(1-methyl-3-(trifluoromethyl)-1H-pyrazol-4-yl)-3,4-dihydroisoquinolin-1(2H)-one] | 29 pM |  |  | 35000 pM |
| Cn1cc(-c2cc(Cn3ccnc3)cc3c2CCN(c2cccc4ncc(C5CC5)cc24)C3=O)c(C(F)(F)F)n1 [Example 130, 7-((1H-Imidazol-1-yl)methyl)-2-(3-cyclopropylquinolin-5-yl)-5-(1-methyl-3-(trifluoromethyl)-1H-pyrazol-4-yl)-3,4-dihydroisoquinolin-1(2H)-one] | 51 pM |  |  | 218000 pM |
| CCc1cc(N2CCN(C3COC3)CC2)c2nc(C)cc(N3CCc4c(cc(Cn5ccnc5)cc4-c4cn(C)nc4C(F)(F)F)C3=O)c2c1 [Example 132, 7-((1H-Imidazol-1-yl)methyl)-2-(6-ethyl-2-methyl-8-(4-(oxetan-3-yl)piperazin-1-yl)quinolin-4-yl)-5-(1-methyl-3-(trifluoromethyl)-1H-pyrazol-4-yl)-3,4-dihydroisoquinolin-1(2H)-one] | 30 pM | < 20000 pM |  |  |
| COc1cc(CN2CCOCC2)c2nccc(N3CCc4c(cc(Cn5ccnc5)cc4-c4cn(C)nc4C(F)(F)F)C3=O)c2c1 [Example 133, 7-((1H-Imidazol-1-yl)methyl)-2-(6-methoxy-8-(morpholinomethyl)quinolin-4-yl)-5-(1-methyl-3-(trifluoromethyl)-1H-pyrazol-4-yl)-3,4-dihydroisoquinolin-1(2H)-one] | 35 pM | < 20000 pM |  |  |
| CCc1cc(N2CCN3CCOC[C@@H]3C2)c2nc(C)cc(N3CCc4c(cc(Cn5ccnc5)cc4-c4cn(C)nc4C(F)(F)F)C3=O)c2c1 [Example 134, (S)-7-((1H-imidazol-1-yl)methyl)-2-(6-ethyl-8-(hexahydropyrazino[2,1-c][1,4]oxazin-8(1H)-yl)-2-methylquinolin-4-yl)-5-(1-methyl-3-(trifluoromethyl)-1H-pyrazol-4-yl)-3,4-dihydroisoquinolin-1(2H)-one] | 30 pM | < 20000 pM |  |  |
| CCc1cc(OCCOC)c2nccc(N3CCc4c(cc(Cn5ccnc5)cc4-c4cn(C)nc4C(F)(F)F)C3=O)c2c1 [Example 140, 7-((1H-Imidazol-1-yl)methyl)-2-(6-ethyl-8-(2-methoxyethoxy)quinolin-4-yl)-5-(1-methyl-3-(trifluoromethyl)-1H-pyrazol-4-yl)-3,4-dihydroisoquinolin-1(2H)-one] | < 20 pM | < 20000 pM |  |  |
| COc1cc(CN2CCN3CCOC[C@@H]3C2)c2nccc(N3CCc4c(cc(Cn5ccnc5)cc4-c4cn(C)nc4C(F)(F)F)C3=O)c2c1 [Example 141, (S)-7-((1H-Imidazol-1-yl)methyl)-2-(8-((hexahydropyrazino[2,1-c][1,4]oxazin-8(1H)-yl)methyl)-6-methoxyquinolin-4-yl)-5-(1-methyl-3-(trifluoromethyl)-1H-pyrazol-4-yl)-3,4-dihydroisoquinolin-1(2H)-one] | 70 pM | < 20000 pM |  |  |
| COc1cc(CN2CCC(OC)CC2)c2nccc(N3CCc4c(cc(Cn5ccnc5)cc4-c4cn(C)nc4C(F)(F)F)C3=O)c2c1 [Example 142, 7-((1H-Imidazol-1-yl)methyl)-2-(6-methoxy-8-((4-methoxypiperidin-1-yl)methyl)quinolin-4-yl)-5-(1-methyl-3-(trifluoromethyl)-1H-pyrazol-4-yl)-3,4-dihydroisoquinolin-1(2H)-one] | 36 pM | < 20000 pM |  |  |
| COc1cc(CN2CCN(C3CCOCC3)CC2)c2nccc(N3CCc4c(cc(Cn5ccnc5)cc4-c4cn(C)nc4C(F)(F)F)C3=O)c2c1 [Example 143, 7-((1H-Imidazol-1-yl)methyl)-2-(6-methoxy-8-((4-(tetrahydro-2H-pyran-4-yl)piperazin-1-yl)methyl)quinolin-4-yl)-5-(1-methyl-3-(trifluoromethyl)-1H-pyrazol-4-yl)-3,4-dihydroisoquinolin-1(2H)-one] | 38 pM | < 20000 pM |  |  |
| COCCN1CCN(Cc2cc(OC)cc3c(N4CCc5c(cc(Cn6ccnc6)cc5-c5cn(C)nc5C(F)(F)F)C4=O)ccnc23)CC1 [Example 144, 7-((1H-Imidazol-1-yl)methyl)-2-(6-methoxy-8-((4-(2-methoxyethyl)piperazin-1-yl)methyl)quinolin-4-yl)-5-(1-methyl-3-(trifluoromethyl)-1H-pyrazol-4-yl)-3,4-dihydroisoquinolin-1(2H)-one] | 47 pM | < 20000 pM |  |  |
| COc1cc(C2=CCOCC2)c2nc(C)cc(N3CCc4c(cc(Cn5ccnc5)cc4-c4cn(C)nc4C(F)(F)F)C3=O)c2c1 [Example 151, 7-((1H-imidazol-1-yl)methyl)-2-(8-(3,6-dihydro-2H-pyran-4-yl)-6-methoxy-2-methylquinolin-4-yl)-5-(1-methyl-3-(trifluoromethyl)-1H-pyrazol-4-yl)-3,4-dihydroisoquinolin-1(2H)-one] | < 20 pM | 55000 pM |  |  |
| CCc1cc(CCC(=O)N2CCOCC2)c2nc(C)cc(N3CCc4c(cc(Cn5ccnc5)cc4-c4cn(C)nc4C(F)(F)F)C3=O)c2c1 [Example 153, 7-((1H-Imidazol-1-yl)methyl)-2-(6-ethyl-2-methyl-8-(3-morpholino-3-oxopropyl)quinolin-4-yl)-5-(1b-methyl-3-(trifluoromethyl)-1H-pyrazol-4-yl)-3,4-dihydroisoquinolin-1(2H)-one] | 22 pM | 47000 pM |  |  |
| COc1cc2c(N3CCc4c(cc(Cn5ccnc5)cc4-c4cn(C)nc4C(F)(F)F)C3=O)cc(C)cc2nc1C [Example 155, 7-((1H-Imidazol-1-yl)methyl)-2-(3-methoxy-2,7-dimethylquinolin-5-yl)-5-(1-methyl-3-(trifluoromethyl)-1H-pyrazol-4-yl)-3,4-dihydroisoquinolin-1(2H)-one] | 29 pM | < 20000 pM |  |  |
| CCc1cc(COC)c2nc(C)cc(N3CCc4c(cc(Cn5ccnc5)cc4-c4cn(C)nc4C(F)(F)F)C3=O)c2c1 [Example 156, 7-((1H-Imidazol-1-yl)methyl)-2-(6-ethyl-8-(methoxymethyl)-2-methylquinolin-4-yl)-5-(1-methyl-3-(trifluoromethyl)-1H-pyrazol-4-yl)-3,4-dihydroisoquinolin-1(2H)-one] | 20 pM | 28000 pM |  |  |

More lines, main results first:

| Ki (WDR5) | GI50 [1, 2] | GI50 ([1]; MV4:11 cells, 5 day incubation, CellTiter-Glo, mean of at least two replicates) | Compound | GI50 ([1]; Homo sapiens, MV4-11, 120 h) |
| --- | --- | --- | --- | --- |
| 43 pM | < 20000 pM |  | COc1cc(CN2CCN(C)C(=O)C2)c2nccc(N3CCc4c(cc(Cn5ccnc5)cc4-c4cn(C)nc4C(F)(F)F)C3=O)c2c1 [Example 131, 7-((1H-Imidazol-1-yl)methyl)-2-(6-methoxy-8-((4-methyl-3-oxopiperazin-1-yl)methyl)quinolin-4-yl)-5-(1-methyl-3-(trifluoromethyl)-1H-pyrazol-4-yl)-3,4-dihydroisoquinolin-1(2H)-one] |  |
| 40 pM | < 20000 pM |  | COc1cc(CN2CCN(C)CC2)c2nccc(N3CCc4c(cc(Cn5ccnc5)cc4-c4cn(C)nc4C(F)(F)F)C3=O)c2c1 [Example 135, 7-((1H-Imidazol-1-yl)methyl)-2-(6-methoxy-8-((4-methylpiperazin-1-yl)methyl)quinolin-4-yl)-5-(1-methyl-3-(trifluoromethyl)-1H-pyrazol-4-yl)-3,4-dihydroisoquinolin-1(2H)-one] |  |
| < 20 pM | < 20000 pM |  | COCc1cc(OC)cc2c(N3CCc4c(cc(Cn5ccnc5)cc4-c4cn(C)nc4C(F)(F)F)C3=O)ccnc12 [Example 136, 7-((1H-Imidazol-1-yl)methyl)-2-(6-methoxy-8-(methoxymethyl)quinolin-4-yl)-5-(1-methyl-3-(trifluoromethyl)-1H-pyrazol-4-yl)-3,4-dihydroisoquinolin-1(2H)-one] |  |
| < 20 pM | < 20000 pM |  | COc1cc(CN2CCCC2)c2nccc(N3CCc4c(cc(Cn5ccnc5)cc4-c4cn(C)nc4C(F)(F)F)C3=O)c2c1 [Example 138, 7-((1H-Imidazol-1-yl)methyl)-2-(6-methoxy-8-(pyrrolidin-1-ylmethyl)quinolin-4-yl)-5-(1-methyl-3-(trifluoromethyl)-1H-pyrazol-4-yl)-3,4-dihydroisoquinolin-1(2H)-one] |  |
| < 20 pM | < 20000 pM |  | COc1cc(Cn2ccnc2)c2nccc(N3CCc4c(cc(Cn5ccnc5)cc4-c4cn(C)nc4C(F)(F)F)C3=O)c2c1 [Example 139, 7-((1H-imidazol-1-yl)methyl)-2-(8-((1H-imidazol-1-yl)methyl)-6-methoxyquinolin-4-yl)-5-(1-methyl-3-(trifluoromethyl)-1H-pyrazol-4-yl)-3,4-dihydroisoquinolin-1(2H)-one] |  |
| 35 pM | 75000 pM |  | CCc1cc(OC)cc2c(N3CCc4c(cc(Cn5ccnc5)cc4-c4cn(C)nc4C(F)(F)F)C3=O)ccnc12 [Example 149, 7-((1H-Imidazol-1-yl)methyl)-2-(8-ethyl-6-methoxyquinolin-4-yl)-5-(1-methyl-3-(trifluoromethyl)-1H-pyrazol-4-yl)-3,4-dihydroisoquinolin-1(2H)-one] |  |
| 25 pM |  | 27000 pM | COCc1cc(OC)cc2c(N3CCc4c(cc(Cn5ccnc5)cc4-c4cn(C)nc4C(F)(F)F)C3=O)ccnc12 [Example 150, 7-((1H-Imidazol-1-yl)methyl)-2-(6-methoxy-8-(methoxymethyl)quinolin-4-yl)-5-(1-methyl-3-(trifluoromethyl)-1H-pyrazol-4-yl)-3,4-dihydroisoquinolin-1(2H)-one] |  |
